{"source": "patent US20250289822A1", "about": "“SOLID FORMS OF HIV INTEGRASE INHIBITORS” (priority 2024, published 2025)", "assay": "Hygroscopicity by dynamic vapor sorption (DVS): water sorption/desorption as a function of relative humidity", "type": "physicochemical", "method": "Hygroscopicity was studied using dynamic vapor sorption (DVS, TA Q5000 SA, TA Instruments, New Castle, DE or DVS, DVS Intrinsic, Surface Measurement Systems, London, UK). […] The water sorption and desorption were studied as a function of relative humidity (RH) at 25° C. […] Data analysis was performed using Universal Analysis 2000 Version 4.7A (TA Instruments, New Castle, DE) for TA DVS runs and Microsoft Excel for SMS DVS runs.", "data": [{"smiles": "C[C@@H]1C=C[C@H](C)N2CN1n1cc(C(=O)NCc3c(F)cc(F)cc3F)c(=O)c(O)c1C2=O", "note": "[Compound of Formula I, Form I, (1S,2R,5S)-8-hydroxy-2,5-dimethyl-7,9-dioxo-N-(2,4,6-trifluorobenzyl)-2,5,7,9-tetrahydro-1,6-methanopyrido[1,2-b][1,2,5]triazonine-10-carboxamide]", "values": [{"measurement": "solid form change after the DVS experiment", "setting": "material checked post DVS experiment", "result": "not have changed form"}, {"measurement": "water absorbed (DVS)", "setting": "up to 95% RH at 25° C.", "result": "about 0.15%"}]}]}
